The test system of this assay is Mfn2 null MEFs. Put plainly: Mitochondrial elongation (aspect ratio) fusogenicity assay. The class given is cell-based, mouse. The settings on record: for Aspect ratio (MEAN ± SEM): Mfn2 null MEFs, overnight, treatment with 1 μM compound (footnote); for Fusogenicity Rank: rank order of aspect ratio among 44 soluble library compounds.

For the molecule `CCOC(=O)c1sc(NC(=O)C(CC)Sc2nnc3c(n2)[nH]c2ccccc23)nc1C` (centres unmarked) [drawing 203, ethyl 4-methyl-2-(2-{5H-[1,2,4]triazino[5,6-b]indol-3-ylsulfanyl}butanamido)-1,3-thiazole-5-carboxylate], the “Aspect ratio (MEAN ± SEM)” value turned out to be 4.5 ± 0.5 and the “Fusogenicity Rank” value was found to be 13.
With `CC(C)C1=CC2C(=O)NC(CSCC(=O)NCc3ccccn3)=NC2S1` (centres unmarked) [drawing 204, 2-({[4-oxo-6-(propan-2-yl)-3H,4H,4aH,7aH-thieno[2,3-d]pyrimidin-2-yl]methyl}sulfanyl)-N-[(pyridin-2-yl)methyl]acetamide], the “Aspect ratio (MEAN ± SEM)” value was 3.8 ± 0.6 and the “Fusogenicity Rank” value is recorded as 21.
For `O=C(CSCCc1ccccn1)Nc1ccc(Cl)c(Cl)c1` [drawing 205, N-(3,4-dichlorophenyl)-2-{[2-(pyridin-2-yl)ethyl]sulfanyl}acetamide], in that order: 2.8 ± 0.1 and 41.
For `Cc1nc[nH]c1CSCCn1cnc2cn(C)nc2c1=O` [drawing 206, 2-methyl-6-(2-{[(4-methyl-1H-imidazol-5-yl)methyl]sulfanyl}ethyl)-2H,6H,7H-pyrazolo[4,3-d]pyrimidin-7-one], in that order: 2.8 ± 0.2 and 42.
For `Cc1ccc(-c2noc(CSCCCC(=O)Nc3c(C)cccc3C)n2)cc1F` [drawing 209, N-(2,6-dimethylphenyl)-4-({[3-(3-fluoro-4-methylphenyl)-1,2,4-oxadiazol-5-yl]methyl}sulfanyl)butanamide], in that order: 3.9 ± 0.5 and 20.
In the case of `COc1ccc2c(c1)C1(SCCN1C(=O)c1ccccc1C)C(=O)N2Cc1cccc(C(F)(F)F)c1` (centres unmarked) [drawing 210, 5-methoxy-3′-(2-methylbenzoyl)-1-{[3-(trifluoromethyl)phenyl]methyl}-1,2-dihydrospiro[indole-3,2′-[1,3]thiazolidine]-2-one], the “Aspect ratio (MEAN ± SEM)” value worked out at 3.5 ± 0.6 and the “Fusogenicity Rank” value is on record as 26.
For `Cc1cccc(C)c1NC(=O)CCCSCc1ncc(C(C)C)o1` [drawing 211, N-(2,6-dimethylphenyl)-4-({[5-(propan-2-yl)-1,3-oxazol-2-yl]methyl}sulfanyl)butanamide], in that order: 3.5 ± 0.1 and 25.
Take `Cc1ccc2c(c1)SC(C(=O)NCc1ccc(N3CCCN(C)CC3)nc1)C2` (centres unmarked) [drawing 212, 6-methyl-N-{[6-(4-methyl-1,4-diazepan-1-yl)pyridin-3-yl]methyl}-2,3-dihydro-1-benzothiophene-2-carboxamide]: the “Aspect ratio (MEAN ± SEM)” value is reported as 4.0 ± 0.3 and the “Fusogenicity Rank” value was found to be 18.
For `O=C(NCCSCc1ccc(Br)s1)C1CCCN(C(=O)c2cccs2)C1` (centres unmarked) [drawing 213, N-(2-{[(5-bromothiophen-2-yl)methyl]sulfanyl}ethyl)-1-(thiophene-2-carbonyl)piperidine-3-carboxamide], in that order: 5.1 ± 0.2 and 9.
For `Cc1ccc(-n2nnnc2SC(C)c2nc(-c3nnc[nH]3)no2)cc1` (centres unmarked) [drawing 215, 1-(4-methylphenyl)-5-({1-[3-(4H-1,2,4-triazol-3-yl)-1,2,4-oxadiazol-5-yl]ethyl}sulfanyl)-1H-1,2,3,4-tetrazole], in that order: 3.4 ± 0.3 and 27.
Consider `Cc1nnc(SCCCNC(=O)c2n[nH]c3c2CN(C)CC3)s1` [drawing 216, 5-methyl-N-{3-[(5-methyl-1,3,4-thiadiazol-2-yl)sulfanyl]propyl}-1H,4H,5H,6H,7H-pyrazolo[4,3-c]pyridine-3-carboxamide], for which the “Aspect ratio (MEAN ± SEM)” value stood at 3.1 ± 0.3 and the “Fusogenicity Rank” value is listed as 34.
Consider `O=C(NCCSCc1ccccc1)C1CCCCO1` (centres unmarked) [drawing 218, N-[2-(benzylsulfanyl)ethyl]oxane-2-carboxamide], for which the “Aspect ratio (MEAN ± SEM)” value is 3.3 ± 0.4 and the “Fusogenicity Rank” value is 30.
As to `Cc1nc[nH]c1CSCCNC(=O)C1CCN(C(=O)C2CCC2)CC1` [drawing 220, 1-cyclobutanecarbonyl-N-(2-{[(4-methyl-1H-imidazol-5-yl)methyl]sulfanyl}ethyl)piperidine-4-carboxamide], the “Aspect ratio (MEAN ± SEM)” value was 2.9 ± 0.5 and the “Fusogenicity Rank” value is 40.
For the molecule `O=C(NCCSCc1cccc(Cl)c1)C1CCCCn2nnnc21` (centres unmarked) [drawing 222, N-(2-{[(3-chlorophenyl)methyl]sulfanyl}ethyl)-5H,6H,7H,8H,9H-[1,2,3,4]tetrazolo[1,5-a]azepine-9-carboxamide], the “Aspect ratio (MEAN ± SEM)” value stood at 2.9 ± 0.2 and the “Fusogenicity Rank” value is 38.
For `CC(Sc1nnc(N2CCOCC2)n1Cc1ccccc1)C(=O)Nc1ccc2[nH]c(=O)[nH]c2c1` (centres unmarked) [drawing 223, 2-{[4-benzyl-5-(morpholin-4-yl)-4H-1,2,4-triazol-3-yl]sulfanyl}-N-(2-oxo-2,3-dihydro-1H-1,3-benzodiazol-5-yl)propanamide], in that order: 5.2 ± 0.2 and 8.
On to `CC1CCCCC1NC(=O)NCCSCc1ccccc1` (centres unmarked) [drawing 224, 1-[2-(benzylsulfanyl)ethyl]-3-(2-methylcyclohexyl)urea], for which the “Aspect ratio (MEAN ± SEM)” value amounted to 6.8 ± 0.6 and the “Fusogenicity Rank” value turned out to be 4.
For `S=C(NCCSCc1ccco1)NC1CC2CCC1C2` (centres unmarked) [drawing 225, 1-{bicyclo[2.2.1]heptan-2-yl}-3-(2-{[(furan-2-yl)methyl]sulfanyl}ethyl)thiourea], in that order: 3.7 ± 0.9 and 23.
For `CC(Sc1nnc(N2CCOCC2)n1Cc1ccccc1)C(=O)Nc1ccc2c(c1)OCCO2` (centres unmarked) [drawing 226, 2-{[4-benzyl-5-(morpholin-4-yl)-4H-1,2,4-triazol-3-yl]sulfanyl}-N-(2,3-dihydro-1,4-benzodioxin-6-yl)propanamide], in that order: 6.0 ± 0.1 and 6.
As for `CC(Sc1nc(CN2CCOCC2)nc2ccccc12)C(=O)Nc1cccc(C(F)(F)F)c1` (centres unmarked) [drawing 227, 2-({2-[(morpholin-4-yl)methyl]quinazolin-4-yl}sulfanyl)-N-[3-(trifluoromethyl)phenyl]propanamide], the “Aspect ratio (MEAN ± SEM)” value was 5.6 ± 0.6 and the “Fusogenicity Rank” value turned out to be 7.
For `Cc1ccc(-n2c(SC(C)C(=O)Nc3ccnn3C(C)C)nnc2N2CCOCC2)cc1` (centres unmarked) [drawing 229, 2-{[4-(4-methylphenyl)-5-(morpholin-4-yl)-4H-1,2,4-triazol-3-yl]sulfanyl}-N-[1-(propan-2-yl)-1H-pyrazol-5-yl]propanamide], in that order: 4.1 ± 0.9 and 15.
For `CCCc1noc(C(C)Sc2nc3cc(C)ccc3[nH]2)n1` (centres unmarked) [drawing 231, 5-methyl-2-{[1-(3-propyl-1,2,4-oxadiazol-5-yl)ethyl]sulfanyl}-1H-1,3-benzodiazole], in that order: 4.0 ± 1.0 and 17.
As for `CCC(C)C1N=C2c3ccccc3N=C(SC(C)C(=O)Nc3cc(OC)cc(OC)c3)N2C1=O` (centres unmarked) [drawing 234, 2-{[2-(butan-2-yl)-3-oxo-2H,3H-imidazo[1,2-c]quinazolin-5-yl]sulfanyl}-N-(3,5-dimethoxyphenyl)propanamide], the “Aspect ratio (MEAN ± SEM)” value is reported as 3.2 ± 0.3 and the “Fusogenicity Rank” value is recorded as 32.

The values above are taken from patent US10844023B2 (Washington University, priority 2017, dated 2020).
